According to patent US8080565B2, “Substituted 4-amino-benzylpiperidine compounds” (Theravance, Inc., priority 2003, dated 2011):

Key:
[1] = tested on: volume-induced bladder contraction amplitude (VIBCAmp); experiment: In vivo rat bladder assay; conditions: anesthetized female Sprague-Dawley rats; intravenous; normalized to atropine response
Method: Female Sprague-Dawley rats (Harlan, Indianapolis, Ind.) weighing 200 to 300 g were anesthetized with urethane (1.5 g/kg, s.c., Sigma, St. Louis, Mo.), with a supplement of 0.25 g/kg, s.c. urethane as needed. Urethane was administered at a concentration of 0.25 g/mL.
Rats were prepared for surgery by shaving the neck and abdomen and cleansing with ethanol wipes. First, an incision was made on the ventral surface. An intravenous catheter was placed by isolating and ligating the femoral vein. […]
Thereafter, an intravenous dose of the test compound was administered and changes in VIBCAmp were recorded for 15 minutes. Atropine (0.1 mg/kg) was then administered intravenously (1 mL/kg) as a positive control and VIBCAmp and data was recorded for an additional 15 minutes. […]
Alternatively, after the vehicle, increasing cumulative intravenous doses of the test compound were administered at 15 minute intervals (1 mL/kg) and changes in VIBCAmp were recorded for 15 minutes. […]
The average VIBCAmp during the 5-15 minute period after test compound and atropine was determined and subtracted from the average VIBCAmp during the 5-15 minute post-vehicle period to obtain the test compound or atropine-induced change in VIBCAmp. […]

[2] = target: T1, hM2 receptor (Homo sapiens, UniProt P08172); experiment: Blockade of agonist-mediated GTPγ[35S] binding; type: biochemical; conditions: CHO-K1 cell membranes expressing hM2; carbachol at EC90
T1 construct: expressed in transfected cells; membrane preparation
T1 sequence (P08172 1-466): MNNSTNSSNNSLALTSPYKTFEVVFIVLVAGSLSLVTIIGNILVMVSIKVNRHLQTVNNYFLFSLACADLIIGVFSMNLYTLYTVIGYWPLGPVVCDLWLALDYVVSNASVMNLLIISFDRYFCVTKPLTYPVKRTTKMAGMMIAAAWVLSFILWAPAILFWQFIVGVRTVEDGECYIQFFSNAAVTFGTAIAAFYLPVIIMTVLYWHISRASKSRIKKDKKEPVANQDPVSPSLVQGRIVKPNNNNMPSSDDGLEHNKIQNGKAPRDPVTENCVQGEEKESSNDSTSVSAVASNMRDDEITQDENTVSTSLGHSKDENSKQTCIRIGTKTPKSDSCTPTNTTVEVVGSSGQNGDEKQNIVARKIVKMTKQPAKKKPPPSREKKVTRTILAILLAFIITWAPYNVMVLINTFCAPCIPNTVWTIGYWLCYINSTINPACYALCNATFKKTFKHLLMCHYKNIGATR
Method: A. Blockade of Agonist-Mediated GTPγ[^35S] Binding
In this assay, the functional potency of a test compound was determined by measuring the ability of the test compound to block carbachol-stimulated GTPγ[^35S] binding in CHO-K1 cells expressing the hM2 receptor.
CHO-K1 cells stably expressing the hM2 muscarinic receptor were grown in medium consisting of Hams F-12 media supplemented with 10% Fetal Bovine Serum and 500 μg/ml of Geneticin (G-418). Cells were incubated in a 5% CO2, humidified incubator at 37° C. Cells were grown to confluence and harvested with dPBS+2 mM EDTA and pelleted by centrifugation at 250×g for 10 minutes.
Cells from the centrifuged pellets were resuspended in homogenization buffer (10 mM HEPES, 10 mM EDTA, pH 7 at 4° C.). […]
To determine the ability of a test compound to inhibit carbachol-stimulated GTPγ[^35S] binding, the following was added to each well of 96 well plates: 25 μL of assay buffer with GTPγ[^35S] and GDP, 25 μL of diluted test compound (prepared as described above), and 25 μL CHO cell membranes expressing the hM2 receptor. […] After the pre-incubation period, 25 μL of carbachol at the final concentration of its EC90 value determined earlier in the day was added to each plate. […]
Test compound potency (IC50) was determined using iterative curve fitting (GraphPad Prism 3.0 software; single site competition curve). […]

[3] = tested on: oxotremorine-induced salivation; experiment: In vivo rat salivation assay; conditions: for ID50 bladder/salivation selectivity ratio: comparison of ID50 values of rat bladder assay and rat salivation assay
Method: Female Sprague-Dawley rats weighing 200 to 300 g were anesthetized with urethane (1.5 g/kg, s.c., Sigma, St. Louis, Mo.), with a supplement of 0.25 g/kg, s.c. urethane as needed. Urethane was administered at a concentration of 0.25 g/mL.
Rats were placed on a heated blanket on their dorsal side in an inclined position (20° angle) position (head down). A swab was placed in the rat's mouth. The test compound or vehicle was administered intravenously via the tail vein. After 5 min., oxotremorine (1.0 mg/kg) was administered subcutaneously. The swab was discarded and replaced by a pre-weighed swab. Saliva was then collected for 10 min. and then the swab was removed and re-weighed to determine the output of saliva. Dose-response curves were fitted with a four parameter logistic equation to obtain estimates of ID50 (dose required to produce 50% of the maximal response).
By comparing the ID50 values determined in the rat bladder assay and rat salivation assay, the in vivo bladder/salivation selectivity ratio was calculated for the compounds tested.

[4] = target: T2, hM3 muscarinic receptor subtype (Homo sapiens, UniProt P20309); experiment: Radioligand binding assay ([3H]NMS displacement), hM3; conditions: ratio of Ki values
T2 construct: expressed in transfected cells; membrane preparation
Method: (§1) A. Membrane Preparation from Cells Expressing hM1, hM2, hM3 and hM4 Muscarnic Receptor Subtypes
(§2) CHO (Chinese hamster ovary) cell lines stably expressing cloned human hM1, hM2, hM3 and hM4 muscarinic receptor subtypes, respectively, were grown to near confluency in medium consisting of HAM's F-12 supplemented with 10% FBS (Fetal Bovine Serum) and 250 μg/mL Geneticin. The cells were grown in a 5% CO2, 37° C. incubator and lifted with dPBS+2 mM EDTA. Cells were collected by 5 minute centrifugation at 650×g, and cell pellets were either stored frozen at −80° C. or membranes were prepared immediately. […] Protein concentration of the membrane suspension was determined by the method of Lowry, O. et al., (1951) Journal of Biochemistry: 193, 265. […]
(§3) Radioligand binding assays were performed in 96-well microtiter plates in a total assay volume of 100 μL. […] Filter plates were rinsed three times with wash buffer (10 mM HEPES) to remove unbound radioactivity. […] The plates were then counted in a PerkinElmer Topcount liquid scintillation counter (PerkinElmer Inc., Wellesley, Mass.). Binding data were analyzed by nonlinear regression analysis with the GraphPad Prism Software package (GraphPad Software, Inc., San Diego, Calif.) using the one-site competition model. […]

[5] = target: T3, hM2 muscarinic receptor subtype (Homo sapiens, UniProt P08172); experiment: Radioligand binding assay ([3H]NMS displacement), hM2; conditions: [3H]NMS at 1 nM; membranes of CHO cells expressing hM2
T3 construct: expressed in transfected cells; membrane preparation
T3 sequence (P08172 1-466): T1 sequence (P08172 1-466)
Method: as §1, §2, §3

T2 sequence (P20309 whole entry): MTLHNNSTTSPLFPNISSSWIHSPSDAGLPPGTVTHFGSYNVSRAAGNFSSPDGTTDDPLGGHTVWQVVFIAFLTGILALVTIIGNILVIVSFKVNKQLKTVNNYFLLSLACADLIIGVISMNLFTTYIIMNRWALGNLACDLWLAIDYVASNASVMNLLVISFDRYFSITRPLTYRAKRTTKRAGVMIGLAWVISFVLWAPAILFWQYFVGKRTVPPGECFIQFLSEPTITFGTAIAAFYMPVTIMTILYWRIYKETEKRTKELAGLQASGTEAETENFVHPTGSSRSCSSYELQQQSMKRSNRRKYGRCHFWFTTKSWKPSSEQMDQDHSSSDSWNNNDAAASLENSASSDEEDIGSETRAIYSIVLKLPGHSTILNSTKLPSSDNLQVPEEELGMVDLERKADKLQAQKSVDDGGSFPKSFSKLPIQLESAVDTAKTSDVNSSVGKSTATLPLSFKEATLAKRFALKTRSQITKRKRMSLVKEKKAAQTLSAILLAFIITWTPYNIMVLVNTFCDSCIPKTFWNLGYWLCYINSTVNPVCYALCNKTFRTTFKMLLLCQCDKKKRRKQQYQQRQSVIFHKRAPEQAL

Ki [2]	hM3/hM2 ratio [4]	Ki [5]	Compound	ID50 (rat bladder assay) [1]	ID50 (rat salivation assay) ([3]; anesthetized female Sprague-Dawley rats, intravenous, oxotremorine 1.0 mg/kg s.c.)	ID50 bladder/salivation selectivity ratio [3]
< 10 nM	greater than or equal to 5	< 20 nM	COc1cccc(OC)c1CN1CCC(N(C)CCCCOCCCCN2CC[C@@H](C(C(N)=O)(c3ccccc3)c3ccccc3)C2)CC1 [Example 4]	less than or equal to 0.1 mg/kg	greater than or equal to 1 mg/kg	greater than 10
–	–	–	CCN(CC)CC#CCOC(=O)C(O)(c1ccccc1)C1CCCCC1 (centres unmarked) [oxybutynin, reference compound]	–	–	about 1.4
–	–	–	Cc1ccc(O)c([C@H](CCN(C(C)C)C(C)C)c2ccccc2)c1 [tolterodine, reference compound]	–	–	~4.8
